Source: patent US10273221B2, “Microbiocidal heterobicyclic derivatives” (Syngenta Participations AG, priority 2015, dated 2019)

Test system: Monographella nivalis (Microdochium nivale)
Assay: Monographella nivalis (Microdochium nivale) / liquid culture (foot rot cereals)
Format: cell-based
Conditions: 96 h, growth inhibition determined photometrically 4-5 days after application, vs untreated control, read-out: disease control

| SMILES | inhibition of growth at 200 ppm [%] |
| --- | --- |
| Cc1cccc2c1ncn2C1=NC(C)(C)C(C)(C)c2c(F)cccc21 [E-1] | ≥ 80 |
| Cc1cccc2c1ncn2C1=NC(C)(C)C(C)(C)c2ccccc21 [E-16] | ≥ 80 |
| Cc1ccc2c(ncn2C2=NC(C)(C)C(C)(C)c3c(F)cccc32)c1C [E-18] | ≥ 80 |
| Cc1cccc2c1C(F)(F)C(C)(C)N=C2n1cnc2c(C)cccc21 [E-21] | ≥ 80 |
| Cc1cccc2c1C(F)(F)C(C)(C)N=C2n1cnc2c(C)c(C)ccc21 [E-22] | ≥ 80 |
| Cc1cc2ncn(C3=NC(C)(C)C(C)(C)c4c(F)cccc43)c2cc1C [E-30] | ≥ 80 |
| Cc1c(F)ccc2c1ncn2C1=NC(C)(C)C(F)(F)c2ccccc21 [E-32] | ≥ 80 |
| Cc1c(Cl)ccc2c1ncn2C1=NC(C)(C)C(F)(F)c2ccccc21 [E-33] | ≥ 80 |
| CC1(C)N=C(n2cnc3c(F)c(F)ccc32)c2cccc(F)c2C1(C)C [E-50] | ≥ 80 |
| Cc1ccc2c(ncn2C2=NC(C)(C)Cc3cc(F)ccc32)c1C [E-57] | ≥ 80 |
| Cc1ccc2c(ncn2C2=NC(C)(C)C(C)(C)c3c(F)cccc32)c1F [E-60] | ≥ 80 |

Test system: Botryotinia fuckeliana (Botrytis cinerea)
Assay: Botryotinia fuckeliana (Botrytis cinerea) / liquid culture (gray mould)
Format: cell-based
Conditions: growth inhibition determined photometrically 3-4 days after application, vs untreated control, read-out: disease control

| SMILES | inhibition of growth at 200 ppm [%] |
| --- | --- |
| Cc1cccc2c1ncn2C1=NC(C)(C)C(C)(C)c2c(F)cccc21 [E-1] | ≥ 80 |
| Cc1cccc2c1ncn2C1=NC(C)(C)C(C)(C)c2ccccc21 [E-16] | ≥ 80 |
| Cc1ccc2c(ncn2C2=NC(C)(C)C(C)(C)c3c(F)cccc32)c1C [E-18] | ≥ 80 |
| Cc1cccc2c1C(F)(F)C(C)(C)N=C2n1cnc2c(C)cccc21 [E-21] | ≥ 80 |
| Cc1cccc2c1C(F)(F)C(C)(C)N=C2n1cnc2c(C)c(C)ccc21 [E-22] | ≥ 80 |
| Cc1cc2ncn(C3=NC(C)(C)C(C)(C)c4c(F)cccc43)c2cc1C [E-30] | ≥ 80 |
| Cc1c(F)ccc2c1ncn2C1=NC(C)(C)C(F)(F)c2ccccc21 [E-32] | ≥ 80 |
| Cc1c(Cl)ccc2c1ncn2C1=NC(C)(C)C(F)(F)c2ccccc21 [E-33] | ≥ 80 |
| CC1(C)N=C(n2cnc3c(F)c(F)ccc32)c2cccc(F)c2C1(C)C [E-50] | ≥ 80 |
| Cc1ccc2c(ncn2C2=NC(C)(C)Cc3cc(F)ccc32)c1C [E-57] | ≥ 80 |
| Cc1ccc2c(ncn2C2=NC(C)(C)C(C)(C)c3c(F)cccc32)c1F [E-60] | ≥ 80 |

Test system: Magnaporthe grisea (Pyricularia oryzae)
Assay: microbe, parasite or virus in culture
Format: cell-based
Conditions: 72 h, read-out: control of Magnaporthe grisea

| SMILES | inhibition of growth at 20 ppm [%] |
| --- | --- |
| Cc1cccc2c1ncn2C1=NC(C)(C)C(C)(C)c2c(F)cccc21 [E-1] | ≥ 80 |
| Cc1cccc2c1ncn2C1=NC(C)(C)C(C)(C)c2ccccc21 [E-16] | ≥ 80 |
| Cc1ccc2c(ncn2C2=NC(C)(C)C(C)(C)c3c(F)cccc32)c1C [E-18] | ≥ 80 |
| Cc1cccc2c1C(F)(F)C(C)(C)N=C2n1cnc2c(C)cccc21 [E-21] | ≥ 80 |
| Cc1cccc2c1C(F)(F)C(C)(C)N=C2n1cnc2c(C)c(C)ccc21 [E-22] | ≥ 80 |
| Cc1cc2ncn(C3=NC(C)(C)C(C)(C)c4c(F)cccc43)c2cc1C [E-30] | ≥ 80 |
| Cc1c(F)ccc2c1ncn2C1=NC(C)(C)C(F)(F)c2ccccc21 [E-32] | ≥ 80 |
| Cc1c(Cl)ccc2c1ncn2C1=NC(C)(C)C(F)(F)c2ccccc21 [E-33] | ≥ 80 |
| CC1(C)N=C(n2cnc3c(F)c(F)ccc32)c2cccc(F)c2C1(C)C [E-50] | ≥ 80 |
| Cc1ccc2c(ncn2C2=NC(C)(C)Cc3cc(F)ccc32)c1C [E-57] | ≥ 80 |
| Cc1ccc2c(ncn2C2=NC(C)(C)C(C)(C)c3c(F)cccc32)c1F [E-60] | ≥ 80 |

Test system: Gaeumannomyces graminis
Assay: Gaeumannomyces graminis / liquid culture (take-all of cereals)
Format: cell-based
Conditions: growth inhibition determined photometrically 4-5 days after application, vs untreated control, read-out: disease control

| SMILES | inhibition of growth at 200 ppm [%] |
| --- | --- |
| Cc1cccc2c1ncn2C1=NC(C)(C)C(C)(C)c2c(F)cccc21 [E-1] | ≥ 80 |
| Cc1cccc2c1ncn2C1=NC(C)(C)C(C)(C)c2ccccc21 [E-16] | ≥ 80 |
| Cc1ccc2c(ncn2C2=NC(C)(C)C(C)(C)c3c(F)cccc32)c1C [E-18] | ≥ 80 |
| Cc1cccc2c1C(F)(F)C(C)(C)N=C2n1cnc2c(C)cccc21 [E-21] | ≥ 80 |
| Cc1cc2ncn(C3=NC(C)(C)C(C)(C)c4c(F)cccc43)c2cc1C [E-30] | ≥ 80 |
| Cc1c(F)ccc2c1ncn2C1=NC(C)(C)C(F)(F)c2ccccc21 [E-32] | ≥ 80 |
| Cc1c(Cl)ccc2c1ncn2C1=NC(C)(C)C(F)(F)c2ccccc21 [E-33] | ≥ 80 |
| Cc1ccc2c(ncn2C2=NC(C)(C)C(C)(C)c3c(F)cccc32)c1F [E-60] | ≥ 80 |

Test system: Mycosphaerella graminicola (Septoria tritici)
Assay: Mycosphaerella graminicola (Septoria tritici) / liquid culture (Septoria blotch)
Format: cell-based
Conditions: Zymoseptoria tritici, 96 h, growth inhibition determined photometrically 4-5 days after application, vs untreated control, read-out: disease control

| SMILES | inhibition of growth at 200 ppm [%] |
| --- | --- |
| Cc1cccc2c1ncn2C1=NC(C)(C)C(C)(C)c2c(F)cccc21 [E-1] | ≥ 80 |
| Cc1ccc2c(ncn2C2=NC(C)(C)C(C)(C)c3c(F)cccc32)c1C [E-18] | ≥ 80 |
| Cc1cccc2c1C(F)(F)C(C)(C)N=C2n1cnc2c(C)cccc21 [E-21] | ≥ 80 |
| Cc1cccc2c1C(F)(F)C(C)(C)N=C2n1cnc2c(C)c(C)ccc21 [E-22] | ≥ 80 |
| Cc1cc2ncn(C3=NC(C)(C)C(C)(C)c4c(F)cccc43)c2cc1C [E-30] | ≥ 80 |
| Cc1c(F)ccc2c1ncn2C1=NC(C)(C)C(F)(F)c2ccccc21 [E-32] | ≥ 80 |
| Cc1c(Cl)ccc2c1ncn2C1=NC(C)(C)C(F)(F)c2ccccc21 [E-33] | ≥ 80 |
| CC1(C)N=C(n2cnc3c(F)c(F)ccc32)c2cccc(F)c2C1(C)C [E-50] | ≥ 80 |
| Cc1ccc2c(ncn2C2=NC(C)(C)Cc3cc(F)ccc32)c1C [E-57] | ≥ 80 |
| Cc1ccc2c(ncn2C2=NC(C)(C)C(C)(C)c3c(F)cccc32)c1F [E-60] | ≥ 80 |

Test system: not given
Assay: not given
Conditions: not given

| SMILES | melting point [°C] |
| --- | --- |
| Cc1cccc2c1ncn2C1=NC(C)(C)C(C)(C)c2c(F)cccc21 [E-1] | 45 to 46 |
| Cc1c(F)ccc2c1ncn2C1=NC(C)(C)C(F)(F)c2ccccc21 [E-32] | 118 to 121 |
| CC1(C)N=C(n2cnc3c(F)c(F)ccc32)c2cccc(F)c2C1(C)C [E-50] | 112 to 114 |
| Cc1ccc2c(ncn2C2=NC(C)(C)Cc3cc(F)ccc32)c1C [E-57] | 143 to 145 |

Test system: Glomerella lagenarium (Colletotrichum lagenarium)
Assay: Glomerella lagenarium (Colletotrichum lagenarium) / liquid culture (anthracnose)
Format: cell-based
Conditions: Colletotrichum orbiculare, growth inhibition measured photometrically 3-4 days after application, vs untreated control, read-out: disease control

| SMILES | inhibition of growth at 200 ppm [%] |
| --- | --- |
| Cc1cccc2c1ncn2C1=NC(C)(C)C(C)(C)c2c(F)cccc21 [E-1] | ≥ 80 |
| Cc1cccc2c1ncn2C1=NC(C)(C)C(C)(C)c2ccccc21 [E-16] | ≥ 80 |
| Cc1ccc2c(ncn2C2=NC(C)(C)C(C)(C)c3c(F)cccc32)c1C [E-18] | ≥ 80 |
| Cc1cccc2c1C(F)(F)C(C)(C)N=C2n1cnc2c(C)cccc21 [E-21] | ≥ 80 |
| Cc1cccc2c1C(F)(F)C(C)(C)N=C2n1cnc2c(C)c(C)ccc21 [E-22] | ≥ 80 |
| Cc1cc2ncn(C3=NC(C)(C)C(C)(C)c4c(F)cccc43)c2cc1C [E-30] | ≥ 80 |
| Cc1c(F)ccc2c1ncn2C1=NC(C)(C)C(F)(F)c2ccccc21 [E-32] | ≥ 80 |
| Cc1c(Cl)ccc2c1ncn2C1=NC(C)(C)C(F)(F)c2ccccc21 [E-33] | ≥ 80 |
| CC1(C)N=C(n2cnc3c(F)c(F)ccc32)c2cccc(F)c2C1(C)C [E-50] | ≥ 80 |
| Cc1ccc2c(ncn2C2=NC(C)(C)Cc3cc(F)ccc32)c1C [E-57] | ≥ 80 |
| Cc1ccc2c(ncn2C2=NC(C)(C)C(C)(C)c3c(F)cccc32)c1F [E-60] | ≥ 80 |

Test system: Fusarium culmorum
Assay: microbe, parasite or virus in culture
Format: cell-based
Conditions: 72 h, read-out: disease control

| SMILES | inhibition of growth at 200 ppm [%] |
| --- | --- |
| Cc1cccc2c1ncn2C1=NC(C)(C)C(C)(C)c2c(F)cccc21 [E-1] | ≥ 80 |
| Cc1cccc2c1ncn2C1=NC(C)(C)C(C)(C)c2ccccc21 [E-16] | ≥ 80 |
| Cc1ccc2c(ncn2C2=NC(C)(C)C(C)(C)c3c(F)cccc32)c1C [E-18] | ≥ 80 |
| Cc1cccc2c1C(F)(F)C(C)(C)N=C2n1cnc2c(C)cccc21 [E-21] | ≥ 80 |
| Cc1cccc2c1C(F)(F)C(C)(C)N=C2n1cnc2c(C)c(C)ccc21 [E-22] | ≥ 80 |
| Cc1cc2ncn(C3=NC(C)(C)C(C)(C)c4c(F)cccc43)c2cc1C [E-30] | ≥ 80 |
| Cc1c(F)ccc2c1ncn2C1=NC(C)(C)C(F)(F)c2ccccc21 [E-32] | ≥ 80 |
| Cc1c(Cl)ccc2c1ncn2C1=NC(C)(C)C(F)(F)c2ccccc21 [E-33] | ≥ 80 |
| CC1(C)N=C(n2cnc3c(F)c(F)ccc32)c2cccc(F)c2C1(C)C [E-50] | ≥ 80 |
| Cc1ccc2c(ncn2C2=NC(C)(C)Cc3cc(F)ccc32)c1C [E-57] | ≥ 80 |
| Cc1ccc2c(ncn2C2=NC(C)(C)C(C)(C)c3c(F)cccc32)c1F [E-60] | ≥ 80 |

Test system: Pyrenophora teres
Assay: Pyrenophora teres / liquid culture (net blotch)
Format: cell-based
Conditions: growth inhibition determined photometrically 3-4 days after application, vs untreated control

| SMILES | inhibition of growth at 20 ppm [%] |
| --- | --- |
| Cc1cccc2c1ncn2C1=NC(C)(C)C(C)(C)c2c(F)cccc21 [E-1] | ≥ 80 |
| Cc1cccc2c1ncn2C1=NC(C)(C)C(C)(C)c2ccccc21 [E-16] | ≥ 80 |
| Cc1ccc2c(ncn2C2=NC(C)(C)C(C)(C)c3c(F)cccc32)c1C [E-18] | ≥ 80 |
| Cc1cccc2c1C(F)(F)C(C)(C)N=C2n1cnc2c(C)cccc21 [E-21] | ≥ 80 |
| Cc1cccc2c1C(F)(F)C(C)(C)N=C2n1cnc2c(C)c(C)ccc21 [E-22] | ≥ 80 |

Test system: Sclerotinia sclerotiorum
Assay: Sclerotinia sclerotiorum / liquid culture (cottony rot)
Conditions: 72 h, read-out: control of Sclerotinia sclerotiorum
Method: Sclerotinia sclerotiorum/Liquid Culture (Cottony Rot)
Mycelia fragments of a newly grown liquid culture of the fungus are directly mixed into nutrient broth (Vogels broth). After placing a (DMSO) solution of test compound into a microtiter plate (96-well format) the nutrient broth containing the fungal material is added. The test plates are incubated at 24° C. and the inhibition of growth is determined photometrically 3-4 days after application.

| SMILES | inhibition of growth at 20 ppm [%] |
| --- | --- |
| Cc1cccc2c1ncn2C1=NC(C)(C)C(C)(C)c2c(F)cccc21 [E-1] | ≥ 80 |
| Cc1cccc2c1ncn2C1=NC(C)(C)C(C)(C)c2ccccc21 [E-16] | ≥ 80 |
| Cc1ccc2c(ncn2C2=NC(C)(C)C(C)(C)c3c(F)cccc32)c1C [E-18] | ≥ 80 |
| Cc1cccc2c1C(F)(F)C(C)(C)N=C2n1cnc2c(C)cccc21 [E-21] | ≥ 80 |
| Cc1cccc2c1C(F)(F)C(C)(C)N=C2n1cnc2c(C)c(C)ccc21 [E-22] | ≥ 80 |
| Cc1cc2ncn(C3=NC(C)(C)C(C)(C)c4c(F)cccc43)c2cc1C [E-30] | ≥ 80 |
| Cc1c(F)ccc2c1ncn2C1=NC(C)(C)C(F)(F)c2ccccc21 [E-32] | ≥ 80 |
| Cc1c(Cl)ccc2c1ncn2C1=NC(C)(C)C(F)(F)c2ccccc21 [E-33] | ≥ 80 |
| Cc1ccc2c(ncn2C2=NC(C)(C)Cc3cc(F)ccc32)c1C [E-57] | ≥ 80 |

Test system: Pyrenophora teres
Assay: Pyrenophora teres / barley / leaf disc preventative (net blotch)
Format: in vivo
Conditions: 200 ppm, barley leaf segments cv. Hasso, inoculated 2 days after application, assessed 5-7 days after application
Method: Pyrenophora teres/Barley/Leaf Disc Preventative (Net Blotch)
Barley leaf segments cv. Hasso are placed on agar in a multiwell plate (24-well format) and sprayed with the formulated test compound diluted in water. The leaf segmens are inoculated with a spore suspension of the fungus 2 days after application. The inoculated leaf segments are incubated at 20° C. and 65% rh under a light regime of 12 h light/12 h darkness in a climate cabinet and the activity of a compound is assessed as disease control compared to untreated when an appropriate level of disease damage appears in untreated check leaf segments (5-7 days after application).

| SMILES | control of Pyrenophora teres |
| --- | --- |
| Cc1cccc2c1ncn2C1=NC(C)(C)C(C)(C)c2ccccc21 [E-16] | at least 80% |
